Data taken from patent US20250308622A1, “METHODS FOR PREDICTING TRANSCRIPTION FACTOR ACTIVITY” (THE REGENTS OF THE UNIVERSITY OF COLORADO, A BODY CORPORATE, priority 2017, published 2025).

Key:
[1] = system: YBOX1; test: MD-level time series after Kdo2-lipid A, normalized to time-matched DMSO; type: cell-based; conditions: mouse T-cells, 1-24 hour time course, relative to time-matched DMSO, FIG. 12E
[2] = system: STAT2; test: as above; type: cell-based; conditions: mouse T-cells, 1-24 hour time course, relative to time-matched DMSO, FIG. 12E
Protocol: (§1) The top panel of FIG. 4A indicates the motif displacement distribution, MD-level, and the number of motifs within […] of any eRNA origin before and after stimulation with Nutlin-3a (e.g., Nutlin) on TP53, the transcription factor known to be activated. […] Blue dots indicate a MD-level difference <10^−6.
(§2) In each of the aforementioned perturbations, nascent transcription was assessed at a time point of one hour or less. Therefore, it was determined whether MD-levels could capture transcription factor activity across broader time frames. […] For a number of TFs, MD-levels trend upward at 12.5 minutes and show significant changes within 25 minutes of exposure.
(§3) GEO SRR numbers of these comparisons are outlined in Table 2.

[3] = system: interferon (IRF7); test: as above; type: cell-based; conditions: mouse T-cells, 1-24 hour time course, relative to time-matched DMSO, FIG. 12E
Protocol: as §1, §2, §3

[4] = system: 641 available TF-motif models; test: Differential MD-level analysis before/after Nutlin-3a, all available TF-motif models; type: cell-based, human; conditions: HCT116 cells, of 641 TF-motif models, p-value<10^−6, FIG. 12A
Excerpt: (§4) The bottom panel of FIG. 4A indicates the change in MD-level (AMDS) following perturbation (y-axis) relative to the number of motifs within 1.5kb of any eRNA origin (x-axis). […] (D) A time series data set following treatment with Flavopiridol Jonkers2014. The y-axis indicates the MD-level change relative to time point 0. Blue dots indicate a MD-level difference <10^−6. A darker shaded line indicates a time trajectory with at least one significant MD-level. (E) Time series data set following treatment with Kdo2-lipid A (KLA) where each time point is normalized to time-matched DMSO Kaikkonen2014. Therefore, the y-axis indicates MD-level difference relative to the time point matched DMSO sample.
(§5) The Motif Displacement score (MD-level) relates the proportion of significant motif sites within some window 2*h divided by the total number of motifs against some larger window 2*H centered at all bidirectional origin events. It is calculated on a per PWM binding model basis.
Let Xj={x1,x2, . . . } be the set of bidirectional origin locations genome wide for some experiment j. Let Yi={y1,y2, . . . } be the set of all significant motif sites for some TF-DNA binding motif model i genome wide, which is static as it only depends on the genome build of interest. Therefore the set of all MD-levels is calculated by equation 10. […]

[5] = system: E4F1; test: MD-level time series after flavopiridol; type: cell-based; conditions: mouse embryonic cells, time series 0-50 minutes relative to time point 0, FIG. 12D
Excerpt: as §4
(§6) In each of the aforementioned perturbations, nascent transcription was assessed at a time point of one hour or less.
(§7) FIG. 12D data set following treatment with Flavopiridol Jonkers2014. The y-axis indicates the MD-level change relative to time point 0. […]
as §5
(§8) Let Xj={x1,x2, . . . } be the set of bidirectional origin locations genome wide for some experiment j. […] Therefore the set of all MD-levels is calculated by equation 10. […]

[6] = system: TP53; test: MD-level time series after flavopiridol; type: cell-based; conditions: mouse embryonic cells, time series 0-50 minutes relative to time point 0, FIG. 12D
Excerpt: as §4, §6, §7, §5, §8

[7] = system: TFs; test: MD-level time series after flavopiridol, all TFs; type: cell-based; conditions: mouse embryonic cells
Excerpt: as §4, §6, §7, §5, §8

CCCCCCCCCCCCCC(=O)O[C@H](CCCCCCCCCCC)CC(=O)O[C@@H]1[C@@H](NC(=O)C[C@@H](CCCCCCCCCCC)OC(=O)CCCCCCCCCCC)[C@H](OC[C@H]2O[C@H](OP(=O)(O)O)[C@H](NC(=O)C[C@H](O)CCCCCCCCCCC)[C@@H](OC(=O)C[C@H](O)CCCCCCCCCCC)[C@@H]2O)O[C@H](CO[C@]2(C(=O)O)C[C@@H](O[C@]3(C(=O)O)C[C@@H](O)[C@@H](O)[C@@H]([C@H](O)CO)O3)[C@@H](O)[C@@H]([C@H](O)CO)O2)[C@H]1OP(=O)(O)O [Kdo2-lipid A]
change in co-localization (MD-level) of YBOX1 [1]: decreased in co-localization | shifts in MD-level of STAT2 [2]: dynamic and time-ordered shifts | shifts in MD-level of interferon (IRF7) [3]: dynamic and time-ordered shifts

COc1ccc(C2=N[C@@H](c3ccc(Cl)cc3)[C@@H](c3ccc(Cl)cc3)N2C(=O)N2CCNC(=O)C2)c(OC(C)C)c1 [Nutlin-3a]
TF-motif models displaying elevated MD-levels following treatment [4]: only TP53 and TP63

CN1CC[C@H](c2c(O)cc(O)c3c(=O)cc(-c4ccccc4Cl)oc23)[C@H](O)C1 [flavopiridol]
change in MD-level of E4F1 [5]: dramatic and monotonic increase | change in MD-level of TP53 [6]: dramatic and monotonic increase | MD-levels at 12.5 minutes, a number of TFs ([7]; 12.5 minutes of exposure): trend upward | time of exposure to significant changes in MD-levels, a number of TFs ([7]; significance p<10^−6): ≤ 25 min
